Like-named read-outs stand apart in the source and are kept apart here.
Columns and labels:
BCRP = target: T1, BCRP (Homo sapiens, UniProt Q9UNQ0); assay: Bidirectional transport in MDCK-II cells expressing BCRP; type: in vitro ADME
T1 construct: expressed in transfected cells; host or cells: MDCK-II
T1 sequence (Q9UNQ0 1-655): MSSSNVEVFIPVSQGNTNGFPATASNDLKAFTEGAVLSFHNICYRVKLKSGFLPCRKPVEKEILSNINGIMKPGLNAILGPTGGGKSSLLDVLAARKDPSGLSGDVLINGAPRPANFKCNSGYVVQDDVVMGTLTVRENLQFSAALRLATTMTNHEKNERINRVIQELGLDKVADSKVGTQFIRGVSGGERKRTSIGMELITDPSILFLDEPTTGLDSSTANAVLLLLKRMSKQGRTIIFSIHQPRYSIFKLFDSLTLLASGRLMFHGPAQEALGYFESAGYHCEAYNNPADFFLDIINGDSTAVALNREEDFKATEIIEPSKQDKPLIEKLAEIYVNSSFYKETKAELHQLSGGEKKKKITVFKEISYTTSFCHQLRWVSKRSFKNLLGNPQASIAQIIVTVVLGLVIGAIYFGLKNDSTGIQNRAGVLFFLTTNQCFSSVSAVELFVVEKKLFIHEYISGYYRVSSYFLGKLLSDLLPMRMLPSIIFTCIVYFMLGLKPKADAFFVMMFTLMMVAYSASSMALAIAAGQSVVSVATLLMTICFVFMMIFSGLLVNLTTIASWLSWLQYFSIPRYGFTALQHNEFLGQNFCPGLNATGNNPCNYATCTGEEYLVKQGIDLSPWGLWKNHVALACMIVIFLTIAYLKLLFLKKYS

OAT1 = target: T2, OAT1 (Homo sapiens, UniProt Q4U2R8); assay: Transporter inhibition in MDCK-II cells, OAT1; type: in vitro ADME; details: for IC50: probe p-aminohippurate 2 μM
T2 construct: expressed in transfected cells; host or cells: MDCK-II
T2 sequence (Q4U2R8 1-563): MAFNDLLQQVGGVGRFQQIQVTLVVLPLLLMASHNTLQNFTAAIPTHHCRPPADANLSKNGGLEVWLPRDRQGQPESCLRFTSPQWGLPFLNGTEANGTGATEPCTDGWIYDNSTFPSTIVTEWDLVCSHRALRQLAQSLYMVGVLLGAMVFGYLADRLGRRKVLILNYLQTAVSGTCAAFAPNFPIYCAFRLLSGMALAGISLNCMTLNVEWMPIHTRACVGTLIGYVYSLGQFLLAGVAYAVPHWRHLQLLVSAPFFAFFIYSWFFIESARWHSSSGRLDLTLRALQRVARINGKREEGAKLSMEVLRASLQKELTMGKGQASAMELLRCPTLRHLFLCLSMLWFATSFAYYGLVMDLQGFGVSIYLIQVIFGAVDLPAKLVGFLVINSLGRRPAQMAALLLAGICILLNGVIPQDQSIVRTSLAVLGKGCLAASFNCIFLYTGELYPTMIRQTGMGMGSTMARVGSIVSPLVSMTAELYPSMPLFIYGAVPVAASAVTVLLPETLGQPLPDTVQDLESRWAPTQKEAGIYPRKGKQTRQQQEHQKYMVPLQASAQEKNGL

P-gp = target: T3, P-gp (Homo sapiens, UniProt P08183); assay: Transporter inhibition in MDCK-II cells, P-gp; type: in vitro ADME; details: for IC50: probe quinidine 0.1 μM
T3 construct: expressed in transfected cells; host or cells: MDCK-II
T3 sequence (P08183 whole entry): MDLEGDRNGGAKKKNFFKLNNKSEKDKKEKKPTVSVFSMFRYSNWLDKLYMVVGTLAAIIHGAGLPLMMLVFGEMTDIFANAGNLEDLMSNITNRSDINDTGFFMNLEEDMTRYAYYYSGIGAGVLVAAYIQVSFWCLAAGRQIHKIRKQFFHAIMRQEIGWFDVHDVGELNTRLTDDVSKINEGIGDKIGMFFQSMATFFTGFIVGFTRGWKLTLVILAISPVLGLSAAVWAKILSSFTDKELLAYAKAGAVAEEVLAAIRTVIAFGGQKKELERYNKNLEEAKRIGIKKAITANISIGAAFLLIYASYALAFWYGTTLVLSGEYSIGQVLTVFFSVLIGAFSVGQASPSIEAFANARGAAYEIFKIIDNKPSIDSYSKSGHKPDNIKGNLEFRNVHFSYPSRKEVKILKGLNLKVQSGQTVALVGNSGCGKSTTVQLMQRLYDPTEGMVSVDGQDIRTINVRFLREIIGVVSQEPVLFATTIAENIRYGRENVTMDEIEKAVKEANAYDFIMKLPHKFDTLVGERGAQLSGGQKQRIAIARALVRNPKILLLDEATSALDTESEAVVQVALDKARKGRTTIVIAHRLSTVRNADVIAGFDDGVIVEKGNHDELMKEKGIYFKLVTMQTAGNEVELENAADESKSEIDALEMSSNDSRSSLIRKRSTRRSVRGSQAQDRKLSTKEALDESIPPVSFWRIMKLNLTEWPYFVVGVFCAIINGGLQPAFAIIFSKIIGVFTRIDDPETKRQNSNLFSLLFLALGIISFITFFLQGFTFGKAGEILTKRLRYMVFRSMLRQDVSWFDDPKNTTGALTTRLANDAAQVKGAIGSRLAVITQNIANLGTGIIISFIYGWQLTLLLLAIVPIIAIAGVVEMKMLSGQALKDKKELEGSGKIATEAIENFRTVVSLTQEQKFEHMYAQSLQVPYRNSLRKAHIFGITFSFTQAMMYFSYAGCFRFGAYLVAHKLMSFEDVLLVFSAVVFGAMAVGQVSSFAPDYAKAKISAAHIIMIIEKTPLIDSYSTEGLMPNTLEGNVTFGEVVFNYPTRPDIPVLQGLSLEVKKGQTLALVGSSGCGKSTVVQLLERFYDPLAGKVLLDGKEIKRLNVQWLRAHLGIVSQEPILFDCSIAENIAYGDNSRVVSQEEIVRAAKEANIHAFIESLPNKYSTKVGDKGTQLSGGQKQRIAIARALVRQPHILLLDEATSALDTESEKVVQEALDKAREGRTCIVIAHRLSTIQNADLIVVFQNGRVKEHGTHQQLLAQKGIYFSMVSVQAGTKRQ

CYP3A4 = CYP3A4 (Homo sapiens, UniProt P08684); assay: Depletion by recombinant CYP enzyme, CYP3A4; type: in vitro ADME; details: recombinant 3A4
CYP3A4, sequence (P08684 whole entry): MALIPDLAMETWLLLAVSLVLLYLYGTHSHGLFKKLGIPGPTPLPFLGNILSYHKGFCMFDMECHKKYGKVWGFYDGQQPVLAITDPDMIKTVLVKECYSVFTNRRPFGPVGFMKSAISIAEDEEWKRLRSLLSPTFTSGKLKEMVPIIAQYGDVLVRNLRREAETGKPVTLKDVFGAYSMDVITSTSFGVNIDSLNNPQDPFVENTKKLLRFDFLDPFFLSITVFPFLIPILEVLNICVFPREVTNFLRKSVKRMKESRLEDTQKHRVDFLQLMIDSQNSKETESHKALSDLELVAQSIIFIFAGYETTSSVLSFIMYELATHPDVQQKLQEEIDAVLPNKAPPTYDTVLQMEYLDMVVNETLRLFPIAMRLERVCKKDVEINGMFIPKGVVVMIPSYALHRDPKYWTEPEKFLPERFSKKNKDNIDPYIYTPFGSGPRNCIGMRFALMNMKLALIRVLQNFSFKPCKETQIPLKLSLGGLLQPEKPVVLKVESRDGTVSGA

2C19 = target: T4, 2C19 (Homo sapiens, UniProt P33261); assay: Selective chemical inhibition of compound of formula (I) depletion in human liver microsomes, CYP2C19; type: in vitro ADME; details: reaction phenotyping
T4 construct: from tissue; host or cells: human liver microsomes
T4 sequence (P33261 whole entry): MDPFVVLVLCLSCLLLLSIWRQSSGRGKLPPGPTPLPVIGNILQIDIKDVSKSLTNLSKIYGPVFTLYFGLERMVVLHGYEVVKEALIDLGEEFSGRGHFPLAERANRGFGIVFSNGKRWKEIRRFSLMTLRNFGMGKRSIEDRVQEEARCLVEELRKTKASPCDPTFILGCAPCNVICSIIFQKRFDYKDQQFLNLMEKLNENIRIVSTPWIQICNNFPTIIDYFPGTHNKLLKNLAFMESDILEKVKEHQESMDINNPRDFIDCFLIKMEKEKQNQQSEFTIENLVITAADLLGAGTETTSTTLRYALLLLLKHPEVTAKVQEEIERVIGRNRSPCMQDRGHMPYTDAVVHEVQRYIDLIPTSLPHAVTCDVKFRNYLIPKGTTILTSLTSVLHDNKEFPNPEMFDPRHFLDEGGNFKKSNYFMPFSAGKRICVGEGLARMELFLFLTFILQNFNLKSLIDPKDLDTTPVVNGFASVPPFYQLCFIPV

BRM = BRM (Homo sapiens, UniProt P51531); assay: biochemical
BRM, sequence (P51531 whole entry): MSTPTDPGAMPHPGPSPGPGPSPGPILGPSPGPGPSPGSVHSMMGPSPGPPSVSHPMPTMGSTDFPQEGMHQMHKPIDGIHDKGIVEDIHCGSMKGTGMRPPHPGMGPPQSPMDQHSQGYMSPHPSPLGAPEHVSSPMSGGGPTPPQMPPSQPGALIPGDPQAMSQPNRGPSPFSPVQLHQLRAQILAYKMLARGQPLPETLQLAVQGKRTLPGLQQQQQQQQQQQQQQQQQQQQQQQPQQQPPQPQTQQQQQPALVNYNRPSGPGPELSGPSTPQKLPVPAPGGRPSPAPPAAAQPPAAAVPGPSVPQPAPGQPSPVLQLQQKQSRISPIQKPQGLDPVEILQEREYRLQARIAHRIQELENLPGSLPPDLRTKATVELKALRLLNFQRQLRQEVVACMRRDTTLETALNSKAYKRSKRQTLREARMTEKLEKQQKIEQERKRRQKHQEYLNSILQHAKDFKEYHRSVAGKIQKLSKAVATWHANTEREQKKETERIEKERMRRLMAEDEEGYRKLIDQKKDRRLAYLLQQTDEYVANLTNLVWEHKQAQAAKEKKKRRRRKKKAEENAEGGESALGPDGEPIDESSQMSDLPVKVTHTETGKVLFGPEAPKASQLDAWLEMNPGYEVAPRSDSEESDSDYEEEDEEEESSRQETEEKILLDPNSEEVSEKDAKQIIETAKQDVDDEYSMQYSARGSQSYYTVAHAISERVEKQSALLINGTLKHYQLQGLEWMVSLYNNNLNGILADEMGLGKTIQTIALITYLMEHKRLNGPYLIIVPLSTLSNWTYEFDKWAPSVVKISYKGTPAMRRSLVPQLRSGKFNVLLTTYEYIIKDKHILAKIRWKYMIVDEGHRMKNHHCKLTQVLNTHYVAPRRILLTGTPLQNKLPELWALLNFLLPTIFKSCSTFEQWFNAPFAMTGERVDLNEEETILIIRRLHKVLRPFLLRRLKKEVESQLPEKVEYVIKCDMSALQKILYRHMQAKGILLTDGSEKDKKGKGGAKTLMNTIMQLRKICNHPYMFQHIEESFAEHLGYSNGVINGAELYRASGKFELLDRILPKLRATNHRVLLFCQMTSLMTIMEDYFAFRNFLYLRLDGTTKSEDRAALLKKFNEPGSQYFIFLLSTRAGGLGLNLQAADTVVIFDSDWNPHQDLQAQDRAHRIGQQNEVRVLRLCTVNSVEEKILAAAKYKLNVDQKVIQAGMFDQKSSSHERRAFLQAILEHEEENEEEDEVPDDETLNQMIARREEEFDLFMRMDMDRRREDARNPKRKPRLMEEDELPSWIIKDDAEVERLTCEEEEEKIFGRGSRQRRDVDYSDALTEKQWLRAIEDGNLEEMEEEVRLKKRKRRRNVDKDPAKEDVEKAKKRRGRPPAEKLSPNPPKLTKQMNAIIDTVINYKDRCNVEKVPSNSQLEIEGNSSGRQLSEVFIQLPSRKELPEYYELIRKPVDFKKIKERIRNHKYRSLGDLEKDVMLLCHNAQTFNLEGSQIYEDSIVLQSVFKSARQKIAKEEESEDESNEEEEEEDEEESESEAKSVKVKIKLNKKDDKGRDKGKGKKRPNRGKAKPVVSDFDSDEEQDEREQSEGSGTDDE

92-1 cells = assay: 3-day cell proliferation assay (CellTiter-Glo); details: Homo sapiens, 72 h, read-out: mean IC50, cell proliferation
CYP2B6 [1] = target: T5, CYP2B6 (Homo sapiens, UniProt P20813); assay: Depletion by recombinant CYP enzyme, CYP2B6; type: in vitro ADME; set-up: from tissue; host or cells: pooled human liver microsomes; details: recombinant 2B6; 0.1 μM
T5 sequence (P20813 1-491): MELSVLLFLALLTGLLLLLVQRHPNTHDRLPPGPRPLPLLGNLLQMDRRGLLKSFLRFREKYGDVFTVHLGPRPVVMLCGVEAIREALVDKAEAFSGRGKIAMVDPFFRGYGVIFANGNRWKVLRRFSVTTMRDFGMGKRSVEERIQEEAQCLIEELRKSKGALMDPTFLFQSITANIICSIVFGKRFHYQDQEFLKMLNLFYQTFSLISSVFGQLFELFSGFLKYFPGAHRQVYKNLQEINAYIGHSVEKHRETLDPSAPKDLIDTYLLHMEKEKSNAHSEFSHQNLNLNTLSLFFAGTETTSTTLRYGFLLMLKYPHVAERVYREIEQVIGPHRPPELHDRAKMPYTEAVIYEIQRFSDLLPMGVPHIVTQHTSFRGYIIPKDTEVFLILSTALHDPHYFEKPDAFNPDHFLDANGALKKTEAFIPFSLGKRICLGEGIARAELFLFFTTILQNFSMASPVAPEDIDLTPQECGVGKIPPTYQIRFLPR

CYP2C8 = CYP2C8 (Homo sapiens, UniProt P10632); assay: Depletion by recombinant CYP enzyme, CYP2C8; type: in vitro ADME; set-up: from tissue; host or cells: pooled human liver microsomes; details: recombinant 2C8
CYP2C8, sequence (P10632 whole entry): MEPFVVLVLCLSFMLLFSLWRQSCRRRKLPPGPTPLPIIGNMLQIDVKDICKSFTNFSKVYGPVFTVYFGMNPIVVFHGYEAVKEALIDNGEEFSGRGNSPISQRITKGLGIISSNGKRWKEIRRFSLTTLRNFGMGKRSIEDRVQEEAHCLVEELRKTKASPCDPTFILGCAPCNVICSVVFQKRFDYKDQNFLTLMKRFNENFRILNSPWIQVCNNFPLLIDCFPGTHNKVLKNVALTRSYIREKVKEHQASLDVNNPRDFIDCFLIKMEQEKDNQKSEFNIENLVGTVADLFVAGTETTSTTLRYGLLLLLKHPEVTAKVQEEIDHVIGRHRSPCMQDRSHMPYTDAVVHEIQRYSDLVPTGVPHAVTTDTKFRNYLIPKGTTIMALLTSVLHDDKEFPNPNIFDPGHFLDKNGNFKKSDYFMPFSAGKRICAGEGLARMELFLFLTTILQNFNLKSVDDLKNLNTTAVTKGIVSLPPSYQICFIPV

CYP2C9 = CYP2C9 (Homo sapiens, UniProt P11712); assay: Depletion by recombinant CYP enzyme, CYP2C9; type: in vitro ADME; set-up: from tissue; host or cells: pooled human liver microsomes; details: recombinant 2C9
CYP2C9, sequence (P11712 whole entry): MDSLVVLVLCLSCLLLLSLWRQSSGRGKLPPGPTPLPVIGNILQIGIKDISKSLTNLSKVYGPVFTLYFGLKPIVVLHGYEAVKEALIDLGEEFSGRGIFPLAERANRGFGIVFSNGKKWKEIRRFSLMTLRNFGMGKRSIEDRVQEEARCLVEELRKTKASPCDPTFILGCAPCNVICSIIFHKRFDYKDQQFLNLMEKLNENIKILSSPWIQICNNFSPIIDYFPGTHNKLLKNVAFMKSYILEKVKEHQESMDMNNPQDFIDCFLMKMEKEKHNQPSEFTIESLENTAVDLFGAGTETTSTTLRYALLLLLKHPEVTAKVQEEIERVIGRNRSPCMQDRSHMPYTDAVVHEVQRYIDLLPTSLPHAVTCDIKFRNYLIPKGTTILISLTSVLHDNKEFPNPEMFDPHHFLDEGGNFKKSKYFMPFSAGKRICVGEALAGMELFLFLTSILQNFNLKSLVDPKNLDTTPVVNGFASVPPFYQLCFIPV

CYP2B6 [2] = target: T5, CYP2B6; assay: CYP enzyme inhibition in pooled human liver microsomes, CYP2B6; details: for inhibition at 30 µM: human, microsomes, Enzyme activity (% inhibition), CYP2B6, probe Efavirenz
[3] = human, read-out: Papp A→B, in transporter cells
[4] = human, read-out: Papp B→A, in transporter cells

COC[C@H](NC(=O)c1ccn(S(C)(=O)=O)c1)C(=O)Nc1nc(-c2cccc(N3C[C@@H](C)O[C@@H](C)C3)n2)cs1 [compound of formula (I), N-((S)-1-((4-(6-(cis-2,6-dimethylmorpholino)pyridin-2-yl)thiazol-2-yl)amino)-3-methoxy-1-oxopropan-2-yl)-1-(methylsulfonyl)-1H-pyrrole-3-carboxamide]
BCRP substrate status (BCRP; MDCK-II cells expressing BCRP): substrate | Papp A→B at 1 μM (BCRP; [3]): 6.15 ×10⁻⁶ cm/s | Papp A→B at 10 μM (BCRP; [3]): 16.5 ×10⁻⁶ cm/s | Papp A→B at 50 μM (BCRP; [3]): 22.4 ×10⁻⁶ cm/s | Papp B→A at 1 μM (BCRP; [4]): 24.3 ×10⁻⁶ cm/s | Papp B→A at 10 μM (BCRP; [4]): 25.2 ×10⁻⁶ cm/s | Papp B→A at 50 μM (BCRP; [4]): 18.5 ×10⁻⁶ cm/s | IC50 (OAT1; OAT1, corrected for difference between measured and nominal concentrations, read-out: IC50 corrected for non-specific binding): > 11.8 µM | IC50 (OAT1; OAT1 in MDCK-II cells, read-out: Estimated IC50 using nominal concentrations): > 50 µM | inhibition toward OAT1 (OAT1; nominal test concentrations up to 50 μM): minimal inhibition | R-value for P-gp inhibition in the gut (P-gp; FDA guidance 2020, human dose of 300 mg): > 10 | IC50 (P-gp; P-gp in MDCK-II cells, read-out: Estimated IC50 using nominal concentrations): 18.5 µM | IC50 (P-gp; P-gp, corrected, read-out: IC50 corrected for non-specific binding): 4.36 µM | % Remaining of Compound of Formula (I) (CYP3A4; 0.1 μM): 0.0% | % Remaining of Compound of Formula (I) (CYP3A4; 1 μM): 1.2% | role of CYP2C19 in metabolism in human liver microsomes (2C19): possible involvement of CYP2C19 to a lesser extent | IC50 (BRM): 0.0045 µM | IC50 (92-1 cells): 0.00113 µM | % Remaining of Compound of Formula (I) (CYP2B6 [1]): 85.3% | % Remaining of Compound of Formula (I) (CYP2C8; 0.1 μM): 81.0% | % Remaining of Compound of Formula (I) (CYP2C8; 1 μM): 95.4% | % Remaining of Compound of Formula (I) (CYP2C9; 0.1 μM): 79.9% | % Remaining of Compound of Formula (I) (CYP2C9; 1 μM): 100% | IC50 (CYP2B6 [2]): > 30 µM | direct inhibitory activity (% inhibition) toward CYP2B6 (CYP2B6 [2]; PHLM, concentrations up to 30 μM): < 50% | inhibition at 30 µM (CYP2B6 [2]; 30 Minutes Pre-incubation with NADPH, PHLM): -10% | inhibition at 30 µM (CYP2B6 [2]; 30 Minutes Pre-incubation without NADPH, PHLM): -6% | inhibition at 30 µM (CYP2B6 [2]; No Pre-incubation, PHLM): 7.6%

Source: patent US20240189318A1, “THERAPEUTIC REGIMENS OF AN INHIBITOR OF THE ENZYMATIC ACTIVITY OF BRG1 AND BRM” (FOGHORN THERAPEUTICS INC., priority 2021, published 2024)
